Measured values as given in patent US8680012B2, “4-phenyl-pyrane-3,5-diones,4-phenyl-thiopyrane-3,6-diones and cyclohexanetriones as novel herbicides” (Syngenta Crop Protection LLC, priority 2006, dated 2014).

Assays:
Format in all cases: in vivo
[1] = tested on: Alopecurus myosuroides (ALOMY); test: Example B post-emergence herbicidal activity, glasshouse pot test; conditions: 312 h, rate 250 g/ha, evaluated after 13 days, read-out: Post-emergence activity ALOMY (100=total damage to plant; 0=no damage to plant)
Procedure: (§1) Seeds of a variety of test species were sown in standard soil in pots. After cultivation for one day (pre-emergence) or after 8 days cultivation (post-emergence) under controlled conditions in a glasshouse (at 24/16° C., day/night; 14 hours light; 65% humidity), the plants were sprayed with an aqueous spray solution derived from the formulation of the technical active ingredient in acetone/water (50:50) solution containing 0.5% Tween 20 (polyoxyethelyene sorbitan monolaurate, CAS RN 9005-64-5). The test plants were then grown in a glasshouse under controlled conditions in a glasshouse (at 24/16° C., day/night; 14 hours light; 65% humidity) and watered twice daily. After 13 days for pre and post-emergence, the test was evaluated (100=total damage to plant; 0=no damage to plant).
(§2) Alopecurus myosuroides (ALOMY), Avena fatua (AVEFA), Setaria faberi (SETFA), Echinochloa crus-galli (ECHCG), Solanum nigrum (SOLNI) and Amaranthus retroflexus (AMARE)

Avena fatua (AVEFA) [2] = test: as above; conditions: 312 h, rate 250 g/ha, evaluated after 13 days, read-out: Post-emergence activity AVEFA (100=total damage to plant; 0=no damage to plant)
Procedure: as §1, §2

[3] = tested on: Echinochloa crus-galli (ECHCG); test: as above; conditions: 312 h, rate 250 g/ha, evaluated after 13 days, read-out: Post-emergence activity ECHCG (100=total damage to plant; 0=no damage to plant)
Procedure: as §1, §2

[4] = tested on: Amaranthus retroflexus (AMARE); test: as above; conditions: 312 h, rate 250 g/ha, evaluated after 13 days, read-out: Post-emergence activity AMARE (100=total damage to plant; 0=no damage to plant)
Procedure: as §1, §2

Setaria faberi (SETFA) [5] = test: as above; conditions: 312 h, rate 250 g/ha, evaluated after 13 days, read-out: Post-emergence activity SETFA (100=total damage to plant; 0=no damage to plant)
Procedure: as §1, §2

[6] = tested on: Alopecurus myosuroides (ALOMY); test: Example B pre-emergence herbicidal activity, glasshouse pot test; conditions: 312 h, rate 250 g/ha, evaluated after 13 days, read-out: Pre-emergence activity ALOMY (100=total damage to plant; 0=no damage to plant)
Procedure: as §1, §2

Avena fatua (AVEFA) [7] = test: as above; conditions: 312 h, rate 250 g/ha, evaluated after 13 days, read-out: Pre-emergence activity AVEFA (100=total damage to plant; 0=no damage to plant)
Procedure: as §1, §2

[8] = tested on: Echinochloa crus-galli (ECHCG); test: as above; conditions: 312 h, rate 250 g/ha, evaluated after 13 days, read-out: Pre-emergence activity ECHCG (100=total damage to plant; 0=no damage to plant)
Procedure: as §1, §2

[9] = tested on: Amaranthus retroflexus (AMARE); test: as above; conditions: 312 h, rate 250 g/ha, evaluated after 13 days, read-out: Pre-emergence activity AMARE (100=total damage to plant; 0=no damage to plant)
Procedure: as §1, §2

Setaria faberi (SETFA) [10] = test: as above; conditions: 312 h, rate 250 g/ha, evaluated after 13 days, read-out: Pre-emergence activity SETFA (100=total damage to plant; 0=no damage to plant)
Procedure: as §1, §2

| Compound | pest or weed control at 250 g/ha [1] [%] | pest or weed control at 250 g/ha (Avena fatua (AVEFA) [2]) [%] | pest or weed control at 250 g/ha [3] [%] | pest or weed control at 250 g/ha [4] [%] | pest or weed control at 250 g/ha (Setaria faberi (SETFA) [5]) [%] | pest or weed control at 250 g/ha [6] [%] | pest or weed control at 250 g/ha (Avena fatua (AVEFA) [7]) [%] | pest or weed control at 250 g/ha [8] [%] | pest or weed control at 250 g/ha [9] [%] | pest or weed control at 250 g/ha (Setaria faberi (SETFA) [10]) [%] |
| --- | --- | --- | --- | --- | --- | --- | --- | --- | --- | --- |
| CCc1ccc(-c2ccc(Cl)cc2Cl)cc1C1=C(O)C(C)(C)[S+]([O-])C(C)(C)C1=O (single isomer, unassigned) [Compound C-10] | 20 | 50 | 70 | 0 | 20 | 20 | 20 | 40 | 0 | 0 |
| CCc1ccc(-c2ccc(Cl)c(Cl)c2Cl)cc1C1=C(O)C(C)(C)OC(C)(C)C1=O [Compound A-137] | 90 | 90 | 100 | 30 | 100 | 70 | 90 | 100 | 0 | 100 |
| Cc1cc(C)c(-c2ccc(Cl)c(F)c2)c(C)c1C1=C(O)C(C)(C)OC(C)(C)C1=O [Compound A-97] | 40 | 30 | 90 | 0 | 70 | 0 | 0 | 50 | 0 | 60 |
| Cc1ccc(-c2cnn(Cc3ccccc3)c2)cc1C1=C(O)C(C)(C)OC(C)(C)C1=O [Compound A-143] | 90 | 80 | 100 | 0 | 90 | 20 | 0 | 0 | 0 | 70 |
| CCc1ccc(-c2ccc(Cl)cn2)cc1C1=C(O)C(C)(C)OC(C)(C)C1=O [Compound A-150] | 90 | 80 | 100 | 0 | 100 | 90 | 40 | 100 | 0 | 100 |
| CCc1ccc(-c2ccc(Cl)nc2C)cc1C1=C(O)C(C)(C)OC(C)(C)C1=O [Compound A-77] | 70 | 60 | 100 | 0 | 90 | 10 | 0 | 0 | 0 | 20 |
| Cc1ccc(-c2ccc(Cl)cc2Cl)cc1C1=C(O)C(C)(C)S(=O)(=O)C(C)(C)C1=O [Compound C-8] | 20 | 0 | 60 | 0 | 40 | 0 | 0 | 0 | 0 | 0 |
| CCc1ccc(-c2ccc(Cl)cc2Cl)cc1C1=C(O)C(C)(C)SC(C)(C)C1=O (single isomer, unassigned) [Compound C-4] | 60 | 30 | 70 | 20 | 70 | 0 | 0 | 0 | 0 | 0 |
| CCc1ccc(-c2ccc(Cl)c(C(F)(F)F)c2F)cc1C1=C(O)C(C)(C)OC(C)(C)C1=O [Compound A-154] | 100 | 70 | 100 | 0 | 100 | 50 | 20 | 100 | 0 | 90 |
| CCc1ccc(-c2ccc(Cl)nc2)cc1C1=C(O)C(C)(C)OC(C)(C)C1=O [Compound A-76] | 90 | 70 | 100 | 0 | 100 | 60 | 50 | 70 | 0 | 100 |
| CCc1ccc(-c2ccc(Cl)cc2)cc1C1=C(O)[C@@]2(C)CC[C@](C)(O2)C1=O (single isomer, unassigned) [Compound A-83] | 80 | 80 | 100 | 0 | 100 | 50 | 40 | 90 | 0 | 100 |
| CCc1ccc(-c2ccc(Cl)c(F)c2)cc1C1=C(O)C(C)(C)[S+]([O-])C(C)(C)C1=O (stereo not shown) [Compound C-12] | 80 | 90 | 90 | 0 | 90 | 0 | 90 | 20 | 0 | 90 |
| CCOC[C@]12CC[C@H](O1)C(=O)C(c1cc(-c3ccc(Cl)c(Cl)c3)ccc1CC)=C2O (single isomer, unassigned) [Compound A-129] | 70 | 80 | 90 | 0 | 80 | 20 | 30 | 40 | 0 | 90 |
| CCc1ccc(-c2ccc(Cl)c(F)c2)cc1C1=C(O)C(C)(C)SC(C)(C)C1=O (single isomer, unassigned) [Compound C-5] | 70 | 70 | 100 | 0 | 90 | 0 | 0 | 0 | 0 | 0 |
| CCOc1ccc(-c2ccc(Cl)cc2)cc1C1=C(O)C(C)(C)OC(C)(C)C1=O [Compound A-89] | 80 | 50 | 90 | 0 | 80 | 0 | 0 | 0 | 0 | 50 |
| COc1ccc(-c2ccc(Cl)cc2F)cc1C1=C(O)C(C)(C)OC(C)(C)C1=O [Compound A-103] | 10 | 0 | 100 | 0 | 100 | 0 | 0 | 0 | 0 | 0 |
